In US20210284622A1, “BIOACTIVE POLYMERS WITH ANTI=FOULING PROPERTIES FOR MEDICAL AND DENTAL USES” (OREGON HEALTH & SCIENCE UNIVERSITY, priority 2020, published 2021):

Tests used:
Format in all cases: cell-based
S. mutans [1] = test: Biofilm quantification by crystal violet (CV) stain, Abs at 562 nm; details: 50 μM, FIGS. 3 & 4
Experimental: FIG. 3 Represents quantification of biofilms grown under different inoculants (50 μM) using crystal violet (CV) stain: (top) Biofilm morphology as visualized after CV stain, (chart) Colorimetrically quantified CV (Absat562 nm) to quantity the biofilm.
FIG. 4 represents quantification of biofilms grown under different inoculants (50 μM) using crystalviolet (CV) stain: (top) Biofilm morphology as visualized after CVstain, (chart) Colorimetrically quantified CV (Absat562 nm) to quantity the biofilm.
[…] G43 derivatives (G43, G43TEG, G43-TEG-MMA, G43-A2-OMe, G43-A-NH2, G43B-Furan, G43-B1-OMe, G43-C3-OMe, and G16) were synthesized de novo screened against S. mutans for biofilm inhibition. The compounds were dissolved in DMSO and serially diluted in H2O at 50 μM, then added to S. mutans cultures (TH medium with sucrose) & incubated for 96 h at 37° C. aerobically. Biofilms were assayed for bacterial viability (metabolic activity via a renilla-reporter S. mutans—Merritt2016). Biofilms were stained with crystal violet (CV), washed 3× with DI H2O, and then the CV was volumetrically extracted to colorimetrically determine the quantity of biofilm. Next, biofilms were washed 3× with DI H2O, then sterilized with EtOH, azeotropically dried. […] Results were analyzed with one-way ANOVA/Tukey's test (α=0.05).

S. mutans [2] = test: Minimum inhibitory concentration (MIC) against S. mutans, serial dilution, TH medium plus sucrose, 96 h; details: Streptococcus mutans, S. mutans in TH medium plus sucrose, 37° C. aerobically
Experimental: Methods: G43, and its non-binding counterpart, G43TEG (N-(2-carbamoyl-4-(2-(2-(2-(2-hydroxyethoxy)ethoxy)ethoxy)ethoxy)phenyl)-5-nitrobenzo[b]thiophene-2-carboxamide), were synthesized and minimum inhibitory concentration (MIC) against S. mutans was established. The compounds were serially diluted in DMSO to 400, 200, 100, 50, 25 and 12.5 then added to S. mutans grown in TH medium plus sucrose. Cultures were incubated for 96 h at 37° C. aerobically. Supernatants with planktonic cells and biofilms were assayed separately for metabolic activity using S. mutans carrying a renilla luciferase reporter. G43 or G43TEG were added at 4 wt % into 50:50 BisGMA/TEGDMA and 70 wt % filler. 0.2 wt % BAPO, 0.05 wt % BHT were used as the photoinitiator and inhibitor, respectively. Polymerization kinetics were assessed for 5 min by near-IR in discs (4 mm by 10 mm diameter), cured with a LED light source (700 mW/cm2, 30 s). Discs were then immersed in deionized H2O for 7 days, with extracted monomers collected every 24 h. Results were analyzed with one-way ANOVA/Tukey's test (α=0.05). […] Polymerizations of dental resins were relatively unaffected by 4% G43 or G43TEG (FIG. 1).

S. mutans [3] = test: Biofilm bacterial viability by metabolic activity, renilla luciferase reporter S. mutans; details: at MIC, FIG. 1
Source text: FIG. 2 represents S. mutans bacterial viability as measured using a metabolic activity via arenilla-reporter S. mutans(Merritt2016).
Methods: G43, and its non-binding counterpart, G43TEG (N-(2-carbamoyl-4-(2-(2-(2-(2-hydroxyethoxy)ethoxy)ethoxy)ethoxy)phenyl)-5-nitrobenzo[b]thiophene-2-carboxamide), were synthesized and minimum inhibitory concentration (MIC) against S. mutans was established. The compounds were serially diluted in DMSO to 400, 200, 100, 50, 25 and 12.5 then added to S. mutans grown in TH medium plus sucrose. Cultures were incubated for 96 h at 37° C. aerobically. Supernatants with planktonic cells and biofilms were assayed separately for metabolic activity using S. mutans carrying a renilla luciferase reporter. […] Polymerization kinetics were assessed for 5 min by near-IR in discs (4 mm by 10 mm diameter), cured with a LED light source (700 mW/cm2, 30 s). […] Results were analyzed with one-way ANOVA/Tukey's test (α=0.05). […]
Eight G43 derivatives (G43, G43TEG, G43-TEG-MMA, G43-A2-OMe, G43-A-NH2, G43B-Furan, G43-B1-OMe, G43-C3-OMe, and G16) were synthesized de novo screened against S. mutans for biofilm inhibition. […] Biofilms were stained with crystal violet (CV), washed 3× with DI H2O, and then the CV was volumetrically extracted to colorimetrically determine the quantity of biofilm. […] Results were analyzed with one-way ANOVA/Tukey's test (α=0.05).

GtfC mutants = test: Crystal violet biofilm quantification in four strains of S. mutans (Gtf mutants); details: FIG. 5
Experimental: FIG. 5 represents quantification of biofilms grown using four strains of S. mutans and colorimetrically quantified CV (Absat562 nm) to quantity the biofilm. Note that AGTF denotes which Gtf enzyme(s) are not expressed by the strain.
Eight G43 derivatives (G43, G43TEG, G43-TEG-MMA, G43-A2-OMe, G43-A-NH2, G43B-Furan, G43-B1-OMe, G43-C3-OMe, and G16) were synthesized de novo screened against S. mutans for biofilm inhibition. The compounds were dissolved in DMSO and serially diluted in H2O at 50 μM, then added to S. mutans cultures (TH medium with sucrose) & incubated for 96 h at 37° C. aerobically. Biofilms were assayed for bacterial viability (metabolic activity via a renilla-reporter S. mutans—Merritt2016). Biofilms were stained with crystal violet (CV), washed 3× with DI H2O, and then the CV was volumetrically extracted to colorimetrically determine the quantity of biofilm. Next, biofilms were washed 3× with DI H2O, then sterilized with EtOH, azeotropically dried. Insoluble biofilm was chemically digested by 1) methylation, 2) acid depolymerization, 3) reduction, and 4) acylation, resulting in methylated alditol acetates for polysaccharide connectivity determination by GC/MS. Results were analyzed with one-way ANOVA/Tukey's test (α=0.05).

In the case of `NC(=O)c1ccccc1NC(=O)c1cc2cc([N+](=O)[O-])ccc2s1` [G43, N-(2-carbamoylphenyl)-5-nitrobenzo[b]thiophene-2-carboxamide], the biofilm production (S. mutans [1]) is reported as “significantly reduced”, the MIC (S. mutans [2]) is reported as 25 to 50 µM and the “reduction of viable biofilm cells” value (S. mutans [3]) is reported as “significant reduction”. The “biofilm reduction in GtfC mutants” value (GtfC mutants) was “biofilm reduction efficacy”.

`NC(=O)c1cc(OCCOCCOCCOCCO)ccc1NC(=O)c1cc2cc([N+](=O)[O-])ccc2s1` [G43TEG, N-(2-carbamoyl-4-(2-(2-(2-(2-hydroxyethoxy)ethoxy)ethoxy)ethoxy)phenyl)-5-nitrobenzo[b]thiophene-2-carboxamide] was tested, and the biofilm production (S. mutans [1]) was “significantly reduced”, the MIC (S. mutans [2]) was 25 to 50 µM and the “reduction of viable biofilm cells” value (S. mutans [3]) was “significant reduction”. For the same molecule, the “biofilm reduction in GtfC mutants” value (GtfC mutants) was “biofilm reduction efficacy”.
